Reference: US20110091931A1, “Methods and Kits for Determining Oxygen Free Radical (OFR) Levels in Animal and Human Tissues as a Prognostic Marker for Cancer and Other Pathophysiologies” (COLBY PHARMACEUTICAL COMPANY, priority 2009, published 2011)
Read-outs that look alike come from different tables or passages of the source.

Tests used:
prostate cancer cells = conditions: androgen-dependent and androgen-independent prostate cancer cells; cited from earlier work
Androgen Receptor (AR) = Androgen Receptor (AR) (Homo sapiens, UniProt P10275, T878A); conditions: LNCaP cells; for fluorescence score, geometric mean / fluorescence score, mean after logarithmic transformation: 40 cells
Experimental: The quantitation of subcellular fluorescence was further validated using a known system—nuclear translocation of AR in LNCaP cells treated with androgen (dihydrotestosterone) or androgen analog metribolone. […] LNCaP cells in charcoal stripped androgen depleted medium are grown for 6 days in the presence of low (0.05 nM) metribolone and 4 more days in the presence of high (1 nM) metribolone. […] For objective analysis of the response, a quantitation of the IHC fluorescence is necessary. The Bioimager was used to quantitate the IHC fluorescence of AR in the nuclei and in the cytoplasm of about 40 cells from four random areas of the microscopic field from each plate.

[1] = tested on: LNCaP human prostate cancer cells; test: DCFH dye oxidation kinetics (ROS, v0) in nuclei and cytoplasm of LNCaP cells; assay type: cell-based; conditions: metribolone treatment over 24-96 h
Experimental: Standardization of cell-based fluorescence quantitation assay. We standardized the BD Pathway Bioimager quantitation of cellular ROS using a well-established cell culture based system. […] The ROS levels in these published studies were determined by monitoring DCFH dye oxidation, where DCFH is oxidized to DCF by ROS to yield quantifiable green fluorescence. The DCF fluorescence in live cell cytoplasm and nuclei (FIG. 2B) were quantitated by using the Hoechst 33342 dye staining of the cell nuclei (blue fluorescence in FIG. 2) that allows for auto focusing, positioning and mapping the contour of the cell nuclei and cytoplasms.
(1) Kinetics of DCF dye oxidation: Oxidation of DCFH to fluorescence DCF dye is a relatively fast reaction that is usually complete within 30-60 minutes. […] Curve fitting of the first 20-30 min of the plot of DCF fluorescence intensity vs. time with a pseudo-first order reaction kinetics yields the initial velocity (v0) values of the reaction (see below), which is directly proportional to the ROS concentration at the time point of DCF dye addition.
(1) Real-time kinetics of DCF dye oxidation in cell nuclei and cytoplasm: DCF dye oxidation kinetics in the nuclei and cytoplasm of LNCaP cells were determined using the BD Bioimager software coupled with Sigmaplot curve-fitting program. […]

SSAT = SSAT mRNA level by qRT-PCR in LNCaP cells; assay type: cell-based, human
Experimental: Each data point was an average of readings from six identically treated LNCaP prostate cancer cell sample wells with readings repeated twice in triplicate sets.
In order to confirm that SSAT was the major source of androgen induced oxidative stress, we developed and used a stable LNCaP cell clone transfected with plasmid transcribing siRNA designed to silence SSAT mRNA expression. The SSAT mRNA level in these cells was determined by qRT-PCR method. […] The ratio of DCF fluorescence (green):DNA fluorescence (blue) for each of the treated well of a 96 well plate normalized to that of the average of control untreated wells represents the ROS level per cell relative to that in control untreated cells. The data points are the mean of numbers obtained from repeat experiments using thirty identically treated wells.

[2] = tested on: SSAT (spermidine/spermine acetyl transferase) gene; test: DNA microarray analysis of gene expression (Affymetrix Gene chip Array) in LNCaP cells; assay type: cell-based, human; conditions: 1 nM R1881, 96 h vs untreated
Experimental: SSAT induction is a mechanism of ROS production in CaP cells. In our search for the biochemical mechanism and convenient diagnostic monitoring of androgen-induced ROS production in prostate cells, a DNA microarray analysis of gene expression was also performed using the Affymetrix Gene chip Array We used untreated androgen dependent LNCaP cells and cells treated with 1 nM androgen […] (a well-accepted androgen analog routinely used due to its stability) for 96 h for these studies. […] We noted with considerable interest that among the list of genes that are overexpressed by more than an order of magnitude after androgen-treatment, SSAT is the only enzyme that is directly related to a ROS-generating biochemical pathway.

LNCaP cells [3] = test: HPLC quantitation of polyamine and acetyl polyamine levels in LNCaP cells; assay type: cell-based, human; conditions: R1881 1 nM, 96 h
Text: This method is routinely used in the analytical laboratory of the core facility of Cancer Centers and was accessible for quantitative assays necessary for the PK/PD determinations. […] Each data point was an average of two determinations where sample cell pellets were collected from three independent experiments.

LNCaP cells [4] = test: DCF dye oxidation assay of androgen (R1881) induced ROS production; assay type: cell-based, human; conditions: cells (si22) transfected with vector transcribing siRNA against SSAT
Experimental: SSAT induction is a major source of androgen induced oxidative stress. In order to confirm that SSAT was the major source of androgen induced oxidative stress, we developed and used a stable LNCaP cell clone transfected with plasmid transcribing siRNA designed to silence SSAT mRNA expression. The SSAT mRNA level in these cells was determined by qRT-PCR method. In the cells transfected only with the vector, the SSAT mRNA level increased by over 8-fold after 96 h treatment with R1881, whereas in cells stably transfected with SSAT siRNA (si22), R1881 under similar treatment condition induced less than 2-fold increase in the SSAT transcript, showing over 75% silencing of SSAT mRNA expression. The ROS production induced by androgen analog R1881 in these cells was measured by DCF dye oxidation assay. The green fluorescence of oxidized DCF in androgen treated LNCaP cells was shown. The effect of SSAT silencing on the R1881 induced ROS production measured by DCF assay was also shown. The ratio of DCF fluorescence (green):DNA fluorescence (blue) for each of the treated well of a 96 well plate normalized to that of the average of control untreated wells represents the ROS level per cell relative to that in control untreated cells. The data points are the mean of numbers obtained from repeat experiments using thirty identically treated wells.
Each data point was an average of readings from six wells repeated twice in triplicates. […] The ROS levels of all CPC-200 pretreated cells were normalized to the ROS levels of cells treated with CPC-200 alone.

[5] = tested on: LNCaP human prostate cancer cells; conditions: 1 nM metribolone, 96 h; cited from earlier work

Androgen Receptor (AR), sequence (P10275 whole entry T878A): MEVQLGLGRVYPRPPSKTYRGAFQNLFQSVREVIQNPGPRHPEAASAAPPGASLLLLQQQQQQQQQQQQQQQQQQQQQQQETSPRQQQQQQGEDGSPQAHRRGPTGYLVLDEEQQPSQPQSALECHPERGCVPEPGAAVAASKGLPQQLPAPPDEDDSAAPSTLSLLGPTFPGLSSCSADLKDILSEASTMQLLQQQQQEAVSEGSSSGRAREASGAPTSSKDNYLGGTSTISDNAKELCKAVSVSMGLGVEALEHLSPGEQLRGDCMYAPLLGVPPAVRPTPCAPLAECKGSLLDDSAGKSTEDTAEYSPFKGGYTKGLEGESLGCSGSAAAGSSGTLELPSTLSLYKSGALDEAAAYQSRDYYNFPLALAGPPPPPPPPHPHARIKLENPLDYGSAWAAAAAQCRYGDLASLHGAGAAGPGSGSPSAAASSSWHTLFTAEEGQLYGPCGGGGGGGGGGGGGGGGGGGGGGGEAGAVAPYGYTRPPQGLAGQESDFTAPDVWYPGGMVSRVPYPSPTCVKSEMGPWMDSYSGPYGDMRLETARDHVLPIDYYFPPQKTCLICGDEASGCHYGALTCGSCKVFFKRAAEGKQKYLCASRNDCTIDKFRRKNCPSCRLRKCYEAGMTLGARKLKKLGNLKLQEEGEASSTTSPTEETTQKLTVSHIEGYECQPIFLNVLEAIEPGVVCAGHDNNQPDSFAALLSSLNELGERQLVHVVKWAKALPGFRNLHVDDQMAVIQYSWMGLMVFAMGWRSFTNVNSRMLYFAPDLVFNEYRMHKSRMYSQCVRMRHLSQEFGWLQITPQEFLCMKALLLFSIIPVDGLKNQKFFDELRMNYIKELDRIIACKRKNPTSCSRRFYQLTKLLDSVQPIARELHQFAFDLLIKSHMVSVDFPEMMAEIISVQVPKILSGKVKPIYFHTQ

Compound | activities against prostate cancer cells (prostate cancer cells) | fluorescence score, geometric mean (Androgen Receptor (AR); 0.05 nM metribolone (control)) | fluorescence score, mean after logarithmic transformation (Androgen Receptor (AR); 0.05 nM metribolone (control)) | increase in the ratio of nuclear fluorescence intensities over the cytoplasmic intensities (AR IHC) (Androgen Receptor (AR); 1 nM metribolone compared to 0.05 nM metribolone) | fluorescence score, geometric mean (Androgen Receptor (AR); 1 nM metribolone) | fluorescence score, mean after logarithmic transformation (Androgen Receptor (AR); 1 nM metribolone) | cells responding dramatically (nuclear localization of AR) (Androgen Receptor (AR); high (1 nM) metribolone) | nuclear and cytoplasmic ROS levels (v0 of DCFH dye oxidation) [1] | increase in the SSAT transcript (SSAT; LNCaP cells stably transfected with SSAT siRNA (si22), 96 h R1881) | increase in SSAT mRNA level (SSAT; LNCaP cells transfected only with the vector, 96 h R1881) | SSAT over-expression, dependence on R1881 concentration (SSAT; LNCaP cells, 1 nM vs 0.05 nM R1881) | increase in SSAT mRNA level (SSAT; R1881 treated LNCaP cells vs untreated control cells) | SSAT gene expression (microarray) [2] | putrescine, spermidine, N-acetyl spermidine and N-acetyl spermine levels (LNCaP cells [3]) | spermine level (LNCaP cells [3]) | R1881 induced ROS levels (LNCaP cells [4]) | ROS production (DCFH dye oxidation) [5]
Cc1c(C)c2c(c(C)c1O)CCC(C)(C)O2 [PMCoI, 2,2,5,7,8 pentamethyl 6-chromanol] | considerable cytotoxic, anti-proliferative and also anti-androgenic activities | – | – | – | – | – | – | – | – | – | – | – | – | – | – | – | –
C[C@]1(O)CC[C@H]2[C@@H]3CCC4=CC(=O)CCC4=C3C=C[C@@]21C [metribolone, 17β-17-Hydroxy-17-methyl-estra-4,9,11-trien-3-one] | – | 329 | 5.80 | 1.5 fold | 605 | 6.41 | 20% | increase over time | less than 2 fold | over 8 fold | over-expressed only in cells treated with 1 nM R1881 | > 30 fold | highly overexpressed gene | increased | markedly decreased spermine level | only a minor increase in ROS levels | high levels of ROS
